For 1 compound, Activity and inhibition results are on record in ChEMBL document CHEMBL5223073, “Andrographolide suppresses cisplatin-induced endothelial hyperpermeability through activation of PI3K/Akt and eNOS -derived nitric oxide” (Bioorg Med Chem, 2020).

Activity calls are given as the source filed them. The calls are words filed in the database; no cut-off is given here.

For series [1], the system named is HUVEC. Description: Cytotoxicity against HUVEC cells assessed as reduction in cell viability at <=30 uM measured after 24 hrs by MTT assay. In kind it is toxicity, cell-based. Conditions: human.
For series [2], the system named is HUVEC. Description: Downregulation of cisplatin-induced ICAM1 protein expression in HUVEC cells at 30 uM incubated for 1 hr by Western blot analysis. Format: functional, cell-based. Conditions: Homo sapiens.
In series [3] the test system is HUVEC. Description: Inhibition of cisplatin-induced store operated Ca2+ release in HUVEC cells at 30 uM preincubated with compound in presence of eNOS inhibitor, N(G)-nitro-L-arginine methyl ester followed by cisplatin stimulation by Fura-2 AM staining based calcium influx assay. In kind it is functional, cell-based. Conditions: Homo sapiens.
Series [4] has as its system HUVEC. Kind of series: Inhibition of cisplatin-induced TRPC1 phosphorylation in [32P] orthophosphate labeled HUVEC cells at 30 uM incubated for 15 mins in presence of cisplatin and eNOS inhibitor, N(G)-nitro-L-arginine methyl ester by Western blot analysis. Format: cell-based. Conditions: Homo sapiens.
Series [5] concerns HUVEC. Kind of series: Induction of NO production in cisplatin-treated HUVEC cells assessed as increase in fluorescence signal at 30 uM measured after 4 to 15 mins by DAF-FM dye based analysis. In kind it is functional, cell-based. Conditions: Homo sapiens, time 4-15 min.
Series [6] addresses T1, NF-kappa-B inhibitor alpha (Homo sapiens) (UniProt P25963).
T1 sequence (whole entry): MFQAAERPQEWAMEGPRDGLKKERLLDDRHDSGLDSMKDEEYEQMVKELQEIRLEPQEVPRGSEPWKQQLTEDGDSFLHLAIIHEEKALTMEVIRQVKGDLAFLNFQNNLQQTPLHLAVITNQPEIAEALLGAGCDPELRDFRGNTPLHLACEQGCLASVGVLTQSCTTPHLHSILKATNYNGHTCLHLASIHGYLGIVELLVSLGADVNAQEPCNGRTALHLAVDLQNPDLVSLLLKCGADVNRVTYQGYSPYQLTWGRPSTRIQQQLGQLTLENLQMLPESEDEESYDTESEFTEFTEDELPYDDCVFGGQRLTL
Kind of series: Inhibition of cisplatin-induced phosphorylation of IkappaBalpha at Ser32/36 residue in HUVEC cells at 30 uM incubated for 1 hr by Western blot analysis. Format: cell-based.

The test system of series [7] is HUVEC. Description: Inhibition of cisplatin-induced store operated Ca2+ release in HUVEC cells at 30 uM preincubated with compound in presence of PI3K inhibitor, wortmannin followed by cisplatin stimulation by Fura-2 AM staining based calcium influx assay. In kind it is functional, cell-based. Conditions: Homo sapiens.
Series [8] concerns HUVEC. Description: Activation of AKT in cisplatin-treated HUVEC cells assessed as increase in AKT phosphorylation at 30 uM measured after 5 to 240 mins by Western blot analysis. In kind it is cell-based. Conditions: Homo sapiens, filed as activator, time 5-240 min.
For series [9], the system named is HUVEC. Description: Downregulation of cisplatin-induced PKCalpha translocation in HUVEC cells at 30 uM incubated for 15 mins in presence of cisplatin and eNOS inhibitor, N(G)-nitro-L-arginine methyl ester by Western blot analysis. Format: functional, cell-based. Conditions: Homo sapiens.
For series [10], the target named is T2, Nitric oxide synthase 3 (Homo sapiens) (UniProt P29474).
T2 sequence (whole entry): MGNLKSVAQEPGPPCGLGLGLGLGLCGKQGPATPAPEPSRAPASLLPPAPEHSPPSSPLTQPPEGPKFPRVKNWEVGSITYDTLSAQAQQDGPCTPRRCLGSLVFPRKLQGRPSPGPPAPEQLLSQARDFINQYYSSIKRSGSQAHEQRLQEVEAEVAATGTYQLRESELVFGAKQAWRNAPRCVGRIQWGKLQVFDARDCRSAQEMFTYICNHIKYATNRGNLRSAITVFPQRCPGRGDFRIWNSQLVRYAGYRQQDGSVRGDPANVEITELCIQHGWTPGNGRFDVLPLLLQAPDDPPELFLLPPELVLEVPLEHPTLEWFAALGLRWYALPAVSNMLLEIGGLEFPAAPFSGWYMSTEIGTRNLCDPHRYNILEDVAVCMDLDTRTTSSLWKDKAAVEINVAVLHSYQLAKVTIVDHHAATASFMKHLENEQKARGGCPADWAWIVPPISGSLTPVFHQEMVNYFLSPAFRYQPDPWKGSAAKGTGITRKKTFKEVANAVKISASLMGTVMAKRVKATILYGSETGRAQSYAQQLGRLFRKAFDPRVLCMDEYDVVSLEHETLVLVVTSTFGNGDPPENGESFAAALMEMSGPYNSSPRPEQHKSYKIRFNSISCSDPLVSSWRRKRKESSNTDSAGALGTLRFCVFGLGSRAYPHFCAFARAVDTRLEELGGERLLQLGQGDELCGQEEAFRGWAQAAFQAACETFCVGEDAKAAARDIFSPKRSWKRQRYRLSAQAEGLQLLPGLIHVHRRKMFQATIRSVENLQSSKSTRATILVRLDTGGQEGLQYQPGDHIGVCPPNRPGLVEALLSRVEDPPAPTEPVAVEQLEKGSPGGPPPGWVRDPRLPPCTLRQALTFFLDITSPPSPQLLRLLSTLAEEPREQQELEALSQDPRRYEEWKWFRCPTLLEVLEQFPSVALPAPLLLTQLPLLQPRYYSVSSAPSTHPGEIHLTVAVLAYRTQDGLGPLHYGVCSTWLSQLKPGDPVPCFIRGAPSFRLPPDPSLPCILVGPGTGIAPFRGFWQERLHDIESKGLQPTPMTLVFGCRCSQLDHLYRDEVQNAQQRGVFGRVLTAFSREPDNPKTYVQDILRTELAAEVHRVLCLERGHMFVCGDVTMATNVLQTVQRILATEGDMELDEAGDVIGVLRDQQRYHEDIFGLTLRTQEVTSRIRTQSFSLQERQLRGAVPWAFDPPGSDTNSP
Kind of series: Activation of eNOS activity in cisplatin-treated HUVEC cells assessed as increase in intracellular cGMP level incubated for 15 mins by radioimmunoassay. Format: cell-based. Conditions: filed as activator, dose 10-30 µM.

For series [11], the system named is HUVEC. Description: Inhibition of cisplatin-induced store operated Ca2+ release in HUVEC cells at 30 uM preincubated with compound followed by cisplatin stimulation by Fura-2 AM staining based calcium influx assay. In kind it is functional, cell-based. Conditions: Homo sapiens.
Series [12] has as its target Transcription factor p65 (Homo sapiens) (UniProt Q04206). Description: Inhibition of cisplatin-induced phosphorylation of p65 subunit at Ser536 residue in HUVEC cells at 30 uM incubated for 1 hr by Western blot analysis. Format: cell-based.
The target is the same in series [13]. Description: Inhibition of cisplatin-induced phosphorylation of p65 subunit at Ser536 residue in HUVEC cells at 30 uM preincubated with eNOS inhibitor, N(G)-nitro-L-arginine methyl ester followed by compound addition and further incubated for 1 hr by Western blot analysis. In kind it is cell-based.
For series [14], the system named is HUVEC. Description: Inhibition of cisplatin-induced PKCalpha translocation in HUVEC cells assessed as increase in PKCalpha accumulation in cytosol at 30 uM incubated for 15 mins in presence of cisplatin by Western blot analysis. In kind it is functional, subcellular. Conditions: Homo sapiens.
The subject of series [15] is HUVEC. Kind of series: Activation of PI3K in cisplatin-treated HUVEC cells assessed as increase PIP3 formation at 30 uM pretreated for 30 mins in presence of PI3K inhibitor, wortmannin followed by cisplatin addition by immunoprecipitation analysis. In kind it is cell-based. Conditions: Homo sapiens.
Series [16] concerns HUVEC. Description: Downregulation of cisplatin-induced ICAM1 protein expression in HUVEC cells at 30 uM preincubated with eNOS inhibitor, N(G)-nitro-L-arginine methyl ester followed by compound addition and further incubated for 1 hr by Western blot analysis. In kind it is functional, cell-based. Conditions: Homo sapiens.

Sequence of Transcription factor p65 (Homo sapiens) (Q04206 whole entry): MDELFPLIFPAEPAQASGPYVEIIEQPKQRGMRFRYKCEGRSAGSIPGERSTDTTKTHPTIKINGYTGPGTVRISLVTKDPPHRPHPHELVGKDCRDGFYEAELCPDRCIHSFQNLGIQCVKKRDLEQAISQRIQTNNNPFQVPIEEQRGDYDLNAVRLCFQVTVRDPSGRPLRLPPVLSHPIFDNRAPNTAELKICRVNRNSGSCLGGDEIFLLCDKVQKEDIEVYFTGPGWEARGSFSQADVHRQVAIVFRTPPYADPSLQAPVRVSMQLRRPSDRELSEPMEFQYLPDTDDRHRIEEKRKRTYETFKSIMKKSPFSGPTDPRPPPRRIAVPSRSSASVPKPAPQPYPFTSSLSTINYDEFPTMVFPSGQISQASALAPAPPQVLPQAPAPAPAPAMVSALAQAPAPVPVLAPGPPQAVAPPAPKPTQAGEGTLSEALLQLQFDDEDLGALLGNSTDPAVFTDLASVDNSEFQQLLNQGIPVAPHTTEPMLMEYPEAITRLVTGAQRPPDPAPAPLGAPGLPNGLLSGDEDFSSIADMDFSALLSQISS

With `C=C1CC[C@@H]2[C@](C)(CO)[C@H](O)CC[C@@]2(C)[C@@H]1C/C=C1/C(=O)OC[C@H]1O` [ANDROGRAPHOLIDE], the Activity entry is “Non-Toxic” with HUVEC [1] and “Dose-Dependent Effect” in series [10]. For the same compound, the result with HUVEC [2], in the series on HUVEC [5] and with HUVEC [8] was Active. In addition, the inhibition result (in the series with HUVEC [3]; in the series on HUVEC [4]; in the series on HUVEC [7]; in series [13]) was “inactive” in each case. Moreover, the inhibition entry (in series [6]; in the series on HUVEC [11]; in series [12]; in the series on HUVEC [14]) was “Active” in each case. Besides, the outcome in the series on HUVEC [9], in the series on HUVEC [15] and in the series on HUVEC [16] was inactive.
